The test system of one experiment is LX2 cells. Briefly: Activity evaluation in LX2 cell model (α-SMA protein expression). Format: cell-based, human. The following applies: 1.0 μM and 10.0 μM, 48 hours incubation, GAPDH internal reference, FIG. 1. The text has this: In LX2 cell model (which can be directly used as the evaluation model of hepatic fibrosis cells in vitro, because LX2 cells are human liver activated stellate cells. The LX2 cells are purchased from China Center for Type Culture Collection of the Chinese Academy of Sciences, Shanghai, China), the anti-fibrosis activities of peptide compounds 1-25 are preliminarily screened, and the expression of the marker α-SMA protein of myofibroblast activation is detected. The peptide compounds 1-25 is subjected to cell incubation for 48 hours by using two concentrations (1.0 μM and 10.0 μM). The control group is given the same volume of Dulbecco's modified Eagle medium (DMEM) (purchased from Gibco in the United States), and GAPDH (purchased from TransGen Biotech) as the internal reference, α-actin (α-SMA) is a symbolic feature that distinguishes myoblast cells from myofibroblasts.

Experiment [1] concerns CCl4 induced hepatic fibrosis. Briefly: Carbon tetrachloride (CCl4) induced hepatic fibrosis model in mice. Format: in vivo, C57BL/6J mice. The following applies: 100.0 μg/kg intraperitoneal, 3 weeks of administration; for aggregation of inflammatory cells in the liver (HE staining) / hepatic fibrosis of mice: FIG. 2; for expression of Collagen I in the liver (immunohistochemistry): FIG. 3; for collagen deposition in the liver (Sirius red staining): FIG. 4. On the procedure:
Molding method: 72 male C57BL/6J mice, male, 18-22 g in weight and 8 weeks old, provided by Laboratory Animal Center, Sun Yat-sen University, randomly divided into 12 groups: 1) control group (Oil)+saline, intraperitoneal injection, n=6; 2) model control group (CCl4)+saline, intraperitoneal injection, n=6; administration of CCl4 to mice once every three days for 6 weeks; 3) model administration group (CCl4)+100.0 μg/kg series of compounds (group 10), intraperitoneal injection, n=6/group. The mice in the control group are injected with corn oil at the same volume and frequency according to the administration volume of 20% CCl4 at the weight of 5.0 μL/g. Administration frequency: administration of CCl4 to mice once every three days for 6 weeks. After 3 weeks of administration of CCl4 to mice in the model administration group, peptide compounds 1, 5, 7, 11, 12, 13, 17, 18, 21 and 22 are administered for 3 weeks from the 4th week. CCl4 and Oil are purchased from Shanghai Aladdin Biochemical Technology Co., Ltd.
In the CCl4 induced hepatic fibrosis model, the manifestations are: inflammatory cell infiltration around the central vein area, hydropic degeneration of hepatic cells, and increased accumulation of collagen fibers in the portal area and the hepatic interlobular septum. After three weeks of administration, the mice are treated and sampled. Blood is taken from the retrobulbar vein for detection of serological indicators, and liver tissue is taken for pathological analysis.
(§1) Hematoxylin-eosin (H&E) staining: paraffin embedded tissue sections are taken and baked at 60° C. for 1 h. Dewaxing and hydration: xylene for 20 minutes→xylene for 20 minutes→absolute alcohol for 15 minutes→absolute alcohol for 15 minutes→95% alcohol for 10 minutes→90% alcohol for 5 minutes→80% alcohol for 5 minutes. Staining: hematoxylin for 7 minutes→rinsing with tap water→differentiation with 1% hydrochloric acid alcohol for 1 s→rinsing with tap water→eosin staining for 15 s-20 s→rinsing with tap water. Dehydration and transparency: 75% alcohol for 1 s→85% alcohol for 1 s→95% alcohol for 1 s→100% alcohol for 1 s→xylene for Is→xylene for 1 s. The sections are aired for 30 minutes and sealed with gum.
Sirius red staining: drying and dewaxing; standing for 5.0 minutes in double distilled water; Sirius red staining for 60-80 minutes in a dark room; washing for 5 s with 0.5% glacial acetic acid; dehydration and transparency, sealing and taking photos.
Immunohistochemistry: drying sections, dewaxing, and then soaking in double distilled water for 5 minutes. Antigen retrieval: putting the shelf where pathological sections are placed into a beaker containing citric acid buffer (PH=6.0), and keeping it under high temperature and pressure for 15 minutes; taking out the beaker and letting it stand at room temperature until the temperature drops to the room temperature, then taking out the sections and putting them into 3.0% hydrogen peroxide for 10 minutes to block the endogenous peroxidase activity, and then washing them with PBS for three times, 5 minutes each time; sealing the tissues with 1.0% BSA for 1 h; removing 1.0% BSA, adding Collagen I antibody on the tissue according to the proportion recommended in the Description, and staying overnight at 4° C.; taking out the pathological sections next day, adding the second antibody with horseradish peroxidase after the room temperature is restored, incubating it at 37° C. for 60 minutes, and then use DAB (diaminobenzidine) ([…], USA) to develop color; and re-staining with hematoxylin staining solution, washing with tap water for 5 minutes, differentiating with 1% hydrochloric acid alcohol, then washing with tap water for 5 minutes again, dehydrating, airing, sealing, and taking photos (H&E staining solution and Sirius red staining solution are purchased from Sangon Biotech (Shanghai) Co., Ltd., and Collagen I antibody is purchased from CST Corporation).

Experiment [2] has as its system bleomycin induced pulmonary fibrosis. Put plainly: Bleomycin (BLM) induced pulmonary fibrosis model in mice. Format: in vivo, C57BL/6J mice. The following applies: 150 μg/kg daily intraperitoneal, 14 days, FIG. 5; for degree of pulmonary fibrosis (H&E staining and Masson staining): compared with bleomycin control group; for fibronectin in pulmonary parenchyma (α-SMA and Collagen1 immunohistochemistry): compared with bleomycin group. As for the experimental part: (§2) Molding method: 78 male C57BL/6J mice, 16-18 g in weight and 6-8 weeks old, provided by Laboratory Animal Center, Sun Yat-sen University, randomly divided into 13 groups: 1) normal control group (Normal), n=6; 2) sham-operated saline control group (Saline), n=6; 3) bleomycin model group (BLM), n=6; and 4) model treatment group: administration of 150 μg/kg series compounds to mice, 10 groups in total, n=6/group. On the 7th day after the operation of bleomycin induced pulmonary fibrosis in mice, mice in the model treatment group are treated with drugs (administration frequency: daily administration/150 μg/kg, intraperitoneal injection). Samples are taken 14 days after administration, and pathological observations are recorded.
(§3) The bleomycin (purchased from TCI Shanghai)) induced pulmonary fibrosis model manifests the following pathological features: bronchiectasis, hydropic degeneration of bronchial epithelial cells, obvious edema and widening of alveolar interstitium, and deposition of a large number of fibroblasts and collagen tissue. The alveolar structure almost completely disappears, filled with fibrous connective tissue, and accompanied by inflammatory cell infiltration. After 14 days of administration, the mice in the model treatment group are treated and sampled. Blood is taken from the retrobulbar vein for detection of serological indicators, and […] is taken for pathological analysis.
as §1, with “H&E” for “Hematoxylin-eosin (H&E)”, “1 s→xylene” for “Is→xylene”
Masson staining: drying and dewaxing; mordanting; adding celestine blue staining solution for 2-3 min, and washing with water; adding Mayer hematoxylin staining solution and washing with water; differentiating with acid alcohol differentiation liquid for several seconds, and washing with tap water; adding ponceau magenta staining solution and washing with distilled water; treating with phosphomolybdic acid solution; adding aniline blue staining solution for 5 min; treating with weak acid solution for 2 min; dehydration and transparency, airing and sealing with gum.
Immunohistochemistry: drying sections, dewaxing, and then soaking in double distilled water for 5 minutes. […]

A further experiment relates to MMP9. Put plainly: ELISA of MMP9 in serum of mice of the bleomycin model. Format: in vivo, C57BL/6J mice. Conditions: BLM mice, 150 μg/kg daily intraperitoneal, 14 days, FIG. 6-A. As for the experimental part:
as §2, §3
(§4) The occurrence and development of fibrotic diseases are related to TGF-β and MMP-9 induced EMT process. Matrix metalloproteinases (MMPs) are matrix degrading proteases that degrade all components of extracellular matrix. They participate in the pathophysiological process of pulmonary fibrosis, play an important role in the abnormal remodeling of extracellular matrix and destruction of basement membrane, and promote the recruitment of inflammatory cells and fibroblasts. The increased expression of MMP-9 in pulmonary fibrosis animal models and patients, higher than the normal MMP-9 level, may destroy normal tissue structure and increase the migration of inflammatory cells to the disease site. In order to further explore the inhibitory mechanism of polypeptide drugs on bleomycin induced pulmonary fibrosis, we detect the expression of TGFβ, MMP9 cell factors in serum of mice in each group by ELISA. […] We speculate that its mechanism should be related to TGF-β.
A general note: ELISA stands for enzyme-linked immunosorbent assay.

In another experiment the test system is TGF-β. Put plainly: ELISA of TGFβ in serum of mice of the bleomycin model. The class given is in vivo, C57BL/6J mice. Conditions: BLM mice, 150 μg/kg daily intraperitoneal, 14 days, FIG. 6-B. On the procedure:
as §2, §3, §4

The values below come from patent US20240336653A1, “PEPTIDE COMPOUND TARGETING ELASTIN-DERIVED PEPTIDES AND USE THEREOF” (Shenzhen Turier Biotech Co., Ltd., priority 2020, published 2024).

*1 amine or outer side, *2 acyl side, *3 side chain or, on linkers, in order; H or OH if unused. Primed or numbered codes have the meaning given here. Where no end group is shown, it is not given here. [ ]: non-standard residue; d: D form. The star is where a group is joined. C20 diacid = O=C(O)CCCCCCCCCCCCCCCCCCC(=O)*; γGlu = O=C(O)[C@H](CCC(=O)[*:2])N[*:1]; Iva = CC[C@](C)(N)C(=O)O; PEG2′ = not defined here

Take “Compound 22 (V[Iva]GSPSAQEEASPA; not fully specified (N-terminus, C-terminus))”: the “inhibiting and improving the activity of α-SMA (expression of α-SMA protein)” value (shortened to “inhibiting and improving the activity”) in the experiment with LX2 cells is “better effects on inhibiting and improving the activity of α-SMA”. Also, in experiment [1], the “aggregation of inflammatory cells in the liver (HE staining)” value (“aggregation of inflammatory cells” for short) was “significantly improved”, the “hepatic fibrosis of mice” value is recorded as “significantly improved”, the “expression of Collagen I in the liver (immunohistochemistry)” value (“expression of Collagen I in the liver” below) is on record as “significant therapeutic improvement” and the “collagen deposition in the liver (Sirius red staining)” value (shortened to “collagen deposition in the liver”) was “significant therapeutic improvement”. In experiment [2], the “degree of pulmonary fibrosis (H&E staining and Masson staining)” value (shortened to “degree of pulmonary fibrosis”) was “significantly reduced”; the “fibronectin in pulmonary parenchyma (α-SMA and Collagen1 immunohistochemistry)” value (“fibronectin in pulmonary parenchyma” below) is on record as “significantly less than that in bleomycin group”. In addition, the “concentration of MMP9 in serum of mice” value with MMP9 is “significantly reduce”. In addition, the “concentration of TGF-β in serum of mice” value in the experiment with TGF-β is given as “significantly reduce”.

As for “(PEG2-PEG2-γGlu-CO(CH2)18CO2H)-Val-Val-Gly-Ser-Pro-Ser-Ala-Gln-Glu-Asp-Ala-Ser-Pro-Leu-NH2 ({C20 diacid-γGlu-PEG2′-PEG2′}-VVGSPSAQEDASPL-NH2) [Compound 12]”, the “inhibiting and improving the activity” value in the experiment with LX2 cells was “better effects on inhibiting and improving the activity of α-SMA”. Besides, in experiment [1], the “aggregation of inflammatory cells” value was “significantly improved”, the “hepatic fibrosis of mice” value is “significantly improved”, the “expression of Collagen I in the liver” value is on record as “significant therapeutic improvement” and the “collagen deposition in the liver” value is “significant therapeutic improvement”. In experiment [2], the “degree of pulmonary fibrosis” value was “significantly reduced”; the “fibronectin in pulmonary parenchyma” value is “significantly less than that in bleomycin group”. Besides, the “concentration of MMP9 in serum of mice” value in the experiment on MMP9 is “significantly reduce”. In addition, the “concentration of TGF-β in serum of mice” value in the experiment with TGF-β was “significantly reduce”.

For the substance “Compound 17: cyclic peptide compound, head-to-tail amide (VVGSPSAQDEASPL; head-to-tail cyclisation; Compound 17)”, in the experiment with LX2 cells, the “inhibiting and improving the activity” value was “better effects on inhibiting and improving the activity of α-SMA”. In addition, in experiment [1], the “aggregation of inflammatory cells” value is on record as “significantly improved”, the “hepatic fibrosis of mice” value is “significantly improved”, the “expression of Collagen I in the liver” value was “significant therapeutic improvement” and the “collagen deposition in the liver” value was “significant therapeutic improvement”. Also, in experiment [2], the “degree of pulmonary fibrosis” value was “significantly reduced”; the “fibronectin in pulmonary parenchyma” value is “significantly less than that in bleomycin group”. The “concentration of MMP9 in serum of mice” value with MMP9 is recorded as “significantly reduce”. In the experiment with TGF-β, the “concentration of TGF-β in serum of mice” value is “significantly reduce”.

As for “(PEG2-PEG2-γGlu-CO(CH2)18CO2H)-Val-Iva-Gly-Ser-Pro-Ser-Ala-Gln-Glu-Glu-Ala-Ser-Pro-Ala-NH2 ({C20 diacid-γGlu-PEG2′-PEG2′}-V[Iva]GSPSAQEEASPA-NH2) [Compound 7]”, the “inhibiting and improving the activity” value in the experiment on LX2 cells was “better effects on inhibiting and improving the activity of α-SMA”. Besides, in experiment [1], the “aggregation of inflammatory cells” value is on record as “significantly improved”, the “hepatic fibrosis of mice” value is given as “significantly improved”, the “expression of Collagen I in the liver” value is “significant therapeutic improvement” and the “collagen deposition in the liver” value was “significant therapeutic improvement”. Also, in experiment [2], the “degree of pulmonary fibrosis” value is recorded as “significantly reduced”; the “fibronectin in pulmonary parenchyma” value is “significantly less than that in bleomycin group”. For the same substance, the “concentration of MMP9 in serum of mice” value with MMP9 is on record as “significantly reduce”. Further, the “concentration of TGF-β in serum of mice” value in the experiment on TGF-β was “significantly reduce”.
